How the values were obtained:
[1] = tested on: adults with nonalcoholic fatty liver disease (NAFLD)/presumed nonalcoholic steatohepatitis (NASH); test: 52-week Phase 3 trial (Example 1): liver volume, open-label arm; type: in vivo, human; conditions: for Liver volume, mean reduction from baseline: open-label 100 mg resmetirom arm
Procedure: A 52-week randomized, double-blind, placebo-controlled Phase 3 trial was conducted to evaluate the safety and effect of resmetirom, an oral, once-daily, liver-targeted thyroid hormone receptor-β selective agonist, on multiple biomarkers in adults with nonalcoholic fatty liver disease (NAFLD)/presumed nonalcoholic steatohepatitis (NASH). Patients were randomized to three double-blind arms (100 mg resmetirom, 80 mg resmetirom, or placebo) or one open-label arm (100 mg resmetirom). Common concomitant medications across the 4 arms were antidiabetes drugs (such as glucagon-like peptide-1 receptor agonists (GLP-1 RAs), metformin, pioglitazone, and sodium/glucose cotransporter-2 inhibitors (SGLT2i)) and drugs to manage dyslipidemia (statins).
Liver volume was evaluated in the open-label 100 mg resmetirom arm at Week 52. Liver volume was reduced from baseline by a mean of 21% and 23% following 16 and 52 weeks of resmetirom treatment, respectively (FIGS. 3A and 3B). […] Correcting hepatic fat reduction for reduced liver volume led to an average hepatic fat reduction of 61% in the open-label arm.

[2] = tested on: patients with Nonalcoholic Steatohepatitis; test: Phase 3 trial in Nonalcoholic Steatohepatitis (Example 2): thyroid hormone levels; type: in vivo, human
Procedure: A randomized, double-blind, placebo-controlled Phase 3 trial was conducted. Patients were randomly assigned to receive resmetirom 80 mg, resmetirom 100 mg, or placebo administered orally once daily. Screening biopsy results were used as baseline for histologic variables and a second biopsy was performed at Week 52.

[3] = Resmetirom 80 mg, Week 52, not on thyroxine
[4] = Resmetirom 80 mg, Week 52, thyroxine-treated
[5] = Resmetirom 100 mg, Week 52, not on thyroxine
[6] = Resmetirom 100 mg, Week 52, thyroxine-treated
[7] = independent of thyroxine replacement

CC(C)c1cc(Oc2c(Cl)cc(-n3nc(C#N)c(=O)[nH]c3=O)cc2Cl)n[nH]c1=O [Resmetirom, 2-[3,5-dichloro-4-[(6-oxo-5-propan-2-yl-1H-pyridazin-3-yl)oxy]phenyl]-3,5-dioxo-1,2,4-triazine-6-carbonitrile]
Liver volume in patient subgroups ([1]; all key patient subgroups of the OL arm): reductions in liver volume were observed | Liver volume, mean reduction from baseline ([1]; 16 weeks): 21% | Liver volume, mean reduction from baseline ([1]; 52 weeks): 23% | average hepatic fat reduction corrected for reduced liver volume ([1]; open-label arm): 61% | FT3/rT3 CFB, LS Mean Difference from PBO ([2]; Resmetirom 80 mg, Week 52): 0.06 | FT3/rT3 LS Mean CFB (SE) ([2]; Resmetirom 80 mg, Week 52): 0.06 (0.004) | FT3 CFB, LS Mean Difference from PBO ([2]; Resmetirom 80 mg, Week 52): 0.02 ng/L | FT3 LS Mean CFB (SE) ([2]; Resmetirom 80 mg, Week 52): −0.01 (0.030) ng/L | FT4 % CFB, LS Mean Difference from PBO ([2]; Resmetirom 80 mg, Week 52): −16.6% | FT4 CFB, LS Mean Difference from PBO ([2]; Resmetirom 80 mg, Week 52): -0.19 ng/dL | FT4 LS Mean % CFB (SE) ([2]; Resmetirom 80 mg, Week 52): −13.9 (0.96) % | FT4 LS Mean CFB (SE) ([2]; Resmetirom 80 mg, Week 52): −0.17 (0.011) ng/dL | TBG CFB, LS Mean Difference from PBO ([2]; Resmetirom 80 mg, Week 52): -1.9 mg/L | TBG LS Mean CFB (SE) ([2]; Resmetirom 80 mg, Week 52): −0.32 (0.45) mg/L | TSH CFB, LS Mean Difference from PBO ([2]; Resmetirom 80 mg, Week 52): −0.18 mIU/L | TSH LS Mean CFB (SE) ([2]; Resmetirom 80 mg, Week 52): −0.28 (0.059) mIU/L | rT3 CFB, LS Mean Difference from PBO ([2]; Resmetirom 80 mg, Week 52): -4.73 ng/dL | rT3 LS Mean CFB (SE) ([2]; Resmetirom 80 mg, Week 52): −4.6 (0.31) ng/dL | FT3/rT3 CFB, LS Mean Difference from PBO [2, 3]: 0.06 | FT3/rT3 LS Mean CFB (SE) [2, 3]: 0.06 (0.005) | FT3 CFB, LS Mean Difference from PBO [2, 3]: 0.01 ng/L | FT3 LS Mean CFB (SE) [2, 3]: −0.01 (0.032) ng/L | FT4 % CFB, LS Mean Difference from PBO [2, 3]: −16.3% | FT4 CFB, LS Mean Difference from PBO [2, 3]: -0.18 ng/dL | FT4 LS Mean % CFB (SE) [2, 3]: −13.8 (0.97) % | FT4 LS Mean CFB (SE) [2, 3]: −0.16 (0.011) ng/dL | TBG CFB, LS Mean Difference from PBO [2, 3]: -1.8 mg/L | TBG LS Mean CFB (SE) [2, 3]: −0.19 (0.47) mg/L | TSH CFB, LS Mean Difference from PBO [2, 3]: −0.15 mIU/L | TSH LS Mean CFB (SE) [2, 3]: −0.23 (0.056) mIU/L | rT3 CFB, LS Mean Difference from PBO [2, 3]: -4.5 ng/dL | rT3 LS Mean CFB (SE) [2, 3]: −4.5 (0.33) ng/dL | FT3/rT3 CFB, LS Mean Difference from PBO [2, 4]: 0.06 | FT3/rT3 LS Mean CFB (SE) [2, 4]: 0.05 (0.011) | FT3 CFB, LS Mean Difference from PBO [2, 4]: 0.05 ng/L | FT3 LS Mean CFB (SE) [2, 4]: 0.04 (0.089) ng/L | FT4 % CFB, LS Mean Difference from PBO [2, 4]: −17.9% | FT4 CFB, LS Mean Difference from PBO [2, 4]: -0.21 ng/dL | FT4 LS Mean % CFB (SE) [2, 4]: −14.0 (3.6) % | FT4 LS Mean CFB (SE) [2, 4]: −0.18 (0.041) ng/dL | TBG CFB, LS Mean Difference from PBO [2, 4]: -2.6 mg/L | TBG LS Mean CFB (SE) [2, 4]: −1.1 (1.4) mg/L | TSH CFB, LS Mean Difference from PBO [2, 4]: −0.41 mIU/L | TSH LS Mean CFB (SE) [2, 4]: −0.63 (0.27) mIU/L | rT3 CFB, LS Mean Difference from PBO [2, 4]: -5.1 ng/dL | rT3 LS Mean CFB (SE) [2, 4]: −5.1 (0.94) ng/dL | FT3/rT3 CFB, LS Mean Difference from PBO ([2]; Resmetirom 100 mg, Week 52): 0.07 | FT3/rT3 LS Mean CFB (SE) ([2]; Resmetirom 100 mg, Week 52): 0.06 (0.004) | FT3 CFB, LS Mean Difference from PBO ([2]; Resmetirom 100 mg, Week 52): -0.05 ng/L | FT3 LS Mean CFB (SE) ([2]; Resmetirom 100 mg, Week 52): −0.08 (0.031) ng/L | FT4 % CFB, LS Mean Difference from PBO ([2]; Resmetirom 100 mg, Week 52): −20.7% | FT4 CFB, LS Mean Difference from PBO ([2]; Resmetirom 100 mg, Week 52): -0.24 ng/dL | FT4 LS Mean % CFB (SE) ([2]; Resmetirom 100 mg, Week 52): −18.1 (0.97) % | FT4 LS Mean CFB (SE) ([2]; Resmetirom 100 mg, Week 52): −0.22 (0.011) ng/dL | TBG CFB, LS Mean Difference from PBO ([2]; Resmetirom 100 mg, Week 52): -2.2 mg/L | TBG LS Mean CFB (SE) ([2]; Resmetirom 100 mg, Week 52): −0.60 (0.45) mg/L | TSH CFB, LS Mean Difference from PBO ([2]; Resmetirom 100 mg, Week 52): −0.10 mIU/L | TSH LS Mean CFB (SE) ([2]; Resmetirom 100 mg, Week 52): −0.20 (0.060) mIU/L | rT3 CFB, LS Mean Difference from PBO ([2]; Resmetirom 100 mg, Week 52): -5.2 ng/dL | rT3 LS Mean CFB (SE) ([2]; Resmetirom 100 mg, Week 52): −5.1 (0.32) ng/dL | FT3/rT3 CFB, LS Mean Difference from PBO [2, 5]: 0.07 | FT3/rT3 LS Mean CFB (SE) [2, 5]: 0.06 (0.005) | FT3 CFB, LS Mean Difference from PBO [2, 5]: -0.06 ng/L | FT3 LS Mean CFB (SE) [2, 5]: −0.08 (0.033) ng/L | FT4 % CFB, LS Mean Difference from PBO [2, 5]: −20.0% | FT4 CFB, LS Mean Difference from PBO [2, 5]: -0.23 ng/dL | FT4 LS Mean % CFB (SE) [2, 5]: −17.6 (1.0) % | FT4 LS Mean CFB (SE) [2, 5]: −0.21 (0.011) ng/dL | TBG CFB, LS Mean Difference from PBO [2, 5]: -1.8 mg/L | TBG LS Mean CFB (SE) [2, 5]: −0.21 (0.49) mg/L | TSH CFB, LS Mean Difference from PBO [2, 5]: −0.12 mIU/L | TSH LS Mean CFB (SE) [2, 5]: −0.20 (0.058) mIU/L | rT3 CFB, LS Mean Difference from PBO [2, 5]: -5.1 ng/dL | rT3 LS Mean CFB (SE) [2, 5]: −4.9 (0.34) ng/dL | FT3/rT3 CFB, LS Mean Difference from PBO [2, 6]: 0.06 | FT3/rT3 LS Mean CFB (SE) [2, 6]: 0.06 (0.010) | FT3 CFB, LS Mean Difference from PBO [2, 6]: -0.01 ng/L | FT3 LS Mean CFB (SE) [2, 6]: −0.03 (0.081) ng/L | FT4 % CFB, LS Mean Difference from PBO [2, 6]: −24.4% | FT4 CFB, LS Mean Difference from PBO [2, 6]: -0.29 ng/dL | FT4 LS Mean % CFB (SE) [2, 6]: −20.6 (3.3) % | FT4 LS Mean CFB (SE) [2, 6]: −0.26 (0.037) ng/dL | TBG CFB, LS Mean Difference from PBO [2, 6]: -4.6 mg/L | TBG LS Mean CFB (SE) [2, 6]: −3.1 (1.3) mg/L | TSH CFB, LS Mean Difference from PBO [2, 6]: 0.09 mIU/L | TSH LS Mean CFB (SE) [2, 6]: −0.13 (0.25) mIU/L | rT3 CFB, LS Mean Difference from PBO [2, 6]: -6.3 ng/dL | rT3 LS Mean CFB (SE) [2, 6]: −6.3 (0.85) ng/dL | Thyroid hormone indices ([2]; in vivo): not clinically impacted | effect on free triiodothyronine (FT3) [2, 7]: no effect | effect on thyroid-stimulating hormone (TSH) [2, 7]: no effect | reduction of free thyroxine (FT4) ([2]; resmetirom groups): 16-19%
